In experiment [1] the test system is BT-474. The experiment can be described thus: Cytotoxicity against human BT474 cells assessed as reduction cell viability after 48 hrs by MTS assay. The following applies: BT-474, 48 h. The experiment is classed as functional.
The test system of a further experiment is PC-3. The experiment can be described thus: Cytotoxicity against human PC3 cells assessed as reduction cell viability after 48 hrs by MTS assay. The experiment is classed as functional. Conditions: PC-3, 48 h.
The subject of the next experiment is DU-145. The experiment can be described thus: Cytotoxicity against human DU145 cells assessed as reduction cell viability after 48 hrs by MTS assay. The following applies: DU-145, 48 h. The experiment is classed as functional.
Experiment [2] is described as follows: Cytotoxicity against human JIMT1 cells assessed as reduction cell viability after 48 hrs by MTS assay. The experiment is classed as functional. Conditions: JIMT-1, 48 h. Background: Tetrazolium dyes change colour on reduction, which living cells bring about.
Another experiment concerns BT-549. The experiment can be described thus: Cytotoxicity against human BT549 cells assessed as reduction cell viability after 48 hrs by MTS assay. The experiment is classed as functional. The following applies: BT-549, 48 h.
A short description of experiment [3]: Cytotoxicity against human MIAPaCa2 cells assessed as reduction cell viability after 48 hrs by MTS assay. The experiment is classed as functional. Conditions: MIA PaCa-2, 48 h.
In experiment [4] the test system is BT-474. The experiment can be described thus: Cytotoxicity against tumorspheres of human BT474 cells assessed as inhibition of cell viability at 10 to 20 uM after 6 days by MTS assay relative to untreated control. Type of experiment: functional, cell-based.
Experiment [5] has as its system BT-474. The experiment can be described thus: Cytotoxicity against tumorspheres of human BT474 cells assessed as disintegration of tumorspheres at 5 to 20 uM after 6 days by phase contrast microscopy relative to untreated control. Type of experiment: functional, cell-based.
In experiment [6] the test system is BT-474. The experiment can be described thus: Cytotoxicity against human BT474 cells assessed as inhibition of cell viability at 10 to 20 uM after 6 days by MTS assay relative to untreated control. The experiment is classed as functional, cell-based.
Experiment [7] has as its system BT-474. The experiment can be described thus: Cytotoxicity against human BT474 cells assessed as inhibition of spheroids formation at 10 to 20 uM after 6 days by phase contrast microscopy relative to untreated control. The experiment is classed as functional, cell-based.
Experiment [8] has as its system BT-474. The experiment can be described thus: Cytotoxicity against human BT474 cells assessed as formation of spheroids with jagged rough edges at 10 to 20 uM after 6 days by phase contrast microscopy relative to untreated control. The experiment is classed as functional, cell-based.
Experiment [9] has as its system BT-474. The experiment can be described thus: Cytotoxicity against tumorspheres of human BT474 cells assessed as cell viability at 30 uM after 6 days by MTS assay relative to untreated control. Type of experiment: functional. Conditions: BT-474, 144 h, read-out: Activity.
The test system of experiment [10] is BT-474. The experiment can be described thus: Cytotoxicity against human BT474 cells assessed as cell viability at 20 uM after 6 days by MTS assay relative to untreated control. The following applies: BT-474, 144 h, read-out: Activity. Type of experiment: functional.
Experiment [11] has as its system BT-474. The experiment can be described thus: Cytotoxicity against tumorspheres of human BT474 cells assessed as inhibition of cell viability at 20 uM after 6 days by MTS assay relative to untreated control. Type of experiment: functional. Conditions: BT-474, 144 h.

Broadly, the CC50 is the concentration giving 50% cytotoxicity. The term inhibition denotes the relative decrease from the control value, in per cent.

The source made the active and inactive calls. The calls are words filed in the database; no cut-off is given here.

As for `CCCCCCCCCCCCCCCCOCC(CO[C@H]1O[C@H](CO)[C@@H](O)[C@H](O)[C@@H]1N)OC` (some centres undefined), the CC50 (with BT-474 [1]; with PC-3; in the experiment with DU-145; in [2]; with BT-549; in [3]) was above 30 µM each time.
In the case of `CCCCCCCCCCCCCCN` [TETRADECYLAMINE], the CC50 came out at 27.1 µM in the experiment on BT-474 [1]; 24.6 µM with PC-3; 16.8 µM in the experiment with DU-145; 24.8 µM in experiment [2]; 21.7 µM in the experiment on BT-549; 18.2 µM in [3].
For the molecule `CCCCCCCCCCCCCCCCOCC(CO[C@H]1O[C@H](CO)[C@H](O)[C@H](O)[C@H]1N)OC` (some centres undefined), the CC50 with BT-474 [1] amounted to 6.2 µM; in the experiment on PC-3 it was 8 µM; in the experiment with DU-145, 4.7 µM; in [2], 4.5 µM; in the experiment with BT-549, 6.3 µM; in experiment [3], 4.4 µM. Also, the inhibition entry with BT-474 [4], in the experiment on BT-474 [6] and in the experiment with BT-474 [7] was “Active” each time. Also, in the experiment on BT-474 [5], the result was Active.
For the molecule `CCCCCCCCCCCCCCCCCCOCC(COP(=O)([O-])OCC[N+](C)(C)C)OC` (centres undefined) [EDELFOSINE], the result with BT-474 [5] was inactive. Besides, the outcome in the experiment on BT-474 [8] was Active. Also, the viability at 30 µM with BT-474 [9] is 45%. In addition, the viability at 20 µM in the experiment on BT-474 [10] was found to be 55%. Further, the inhibition at 20 µM in the experiment on BT-474 [11] came to 30%.
For `CCCCCCCCCCCCCCCCOCC(CS[C@H]1O[C@H](CO)[C@H](O)[C@H](O)[C@H]1N)OC` (some centres undefined), the CC50 stood at 24.4 µM with BT-474 [1]; 15 µM in the experiment with PC-3; 17.2 µM with DU-145; 19.1 µM in [2]; 18.3 µM in the experiment on BT-549; 18.8 µM in experiment [3].
For the molecule `CCCCCCCCCCCCCCCCOCC(CO[C@@H]1O[C@H](CO)[C@@H](O)[C@H](O)[C@H]1N)OC` (some centres undefined), the CC50 with BT-474 [1] was 8 µM; in the experiment with PC-3, 13.5 µM; in the experiment on DU-145, 10 µM; in experiment [2], 9 µM; with BT-549 it was 13 µM; in experiment [3] it was 10 µM. Moreover, the outcome with BT-474 [5] was Active. The inhibition entry in the experiment on BT-474 [6] and in the experiment with BT-474 [7] was “Active” in each case.
Regarding `CCCCCCCCCCCCCCCCOCC(CO[C@@H]1O[C@H](CO)[C@H](O)[C@H](O)[C@H]1N)OC` (some centres undefined), the CC50 with BT-474 [1] was above 30 µM; in the experiment with PC-3, above 30 µM; in the experiment with DU-145, 19.5 µM; in experiment [2] it was 24.8 µM; in the experiment on BT-549, 27.6 µM; in experiment [3] it was 25.8 µM.
`CCCCCCCCCCCCCCCCOCC(CO[C@H]1O[C@H](CO)[C@@H](O)[C@H](O)[C@H]1N)OC` (some centres undefined): the CC50 in the experiment with BT-474 [1] is 6.2 µM; in the experiment with PC-3 it was 10.5 µM; in the experiment on DU-145, 7 µM; in experiment [2], 6 µM; in the experiment on BT-549, 7 µM; in experiment [3], 7 µM. The inhibition result in the experiment with BT-474 [4], in the experiment on BT-474 [6] and in the experiment with BT-474 [7] was “Active” throughout. In addition, the result in the experiment with BT-474 [5] was Active.
On to `CCCCCCCCCCCCCCCCOCC(CS[C@@H]1O[C@H](CO)[C@H](O)[C@H](O)[C@H]1N)OC` (some centres undefined), for which the CC50 in the experiment with BT-474 [1] was above 30 µM; with PC-3, 24.3 µM; in the experiment on DU-145, 18.8 µM; in experiment [2], 15.5 µM; in the experiment with BT-549 it was 22.2 µM; in experiment [3], 20.2 µM.

The values above are taken from ChEMBL document CHEMBL3232982, “Cytotoxic properties of D-gluco-, D-galacto- and D-manno-configured 2-amino-2-deoxy-glycerolipids against epithelial cancer cell lines and BT-474 breast cancer stem cells” (2014).
